This data set can be described thus: Light degradation under ICH photo condition. It counts as physicochemical.

Each structure is given as a SMILES string.

`COc1c(/C=C/c2ccc(NS(C)(=O)=O)cc2)cc(-n2ccc(=O)[nH]c2=O)cc1C(C)(C)C` [Compound A, (E)-N-(4-(3-tert-butyl-5-(2,4-dioxo-3,4-dihydropyrimidin-1(2H)-yl)-2-methoxystyryl)phenyl)methanesulfonamide]: the “Stability in solution upon exposure to light” value is recorded as “may convert into an alternative isomer”.

These data come from patent publication US9248193B2, “Formulations of phenyl uracil compounds” (AbbVie Inc., priority 2011, dated 2016).
